Data from patent publication US9309187B2, “EP2 receptor agonists” (TAKEDA GMBH, priority 2012, dated 2016).

Legend:
[1] = system: TNFalpha release in human whole blood stimulated with LPS; test: Inhibition of LPS induced TNFalpha release in human whole blood; type: cell-based; settings: 1 microg/mL LPS, 4 hours, reported as range bins, read-out: Inhibition of LPS induced TNFalpha release in human whole blood pIC30 (-log IC30)
Method: Method for Measuring the Inhibition of TNFalpha Release in Human Whole Blood Stimulated with LPS:
Assay was performed with some modifications of the method described by Hatzelmann and Schudt (Hatzelmann and Schudt (2001) JPET 297: 267-279) and the protocol “drawing of venous blood from healthy volunteers for in vitro studies” was approved by the ethics committee of the Landesärztekammer Baden Württemberg in Stuttgart.
Heparinised venous blood was equilibrated to assay conditions for 1 hour at room temperature upon blood drawing. Immediately thereafter, 200 microL whole blood per sample were pre-incubated with 25 microL of a serial dilution of test compound or piclamilast as positive control for 30 min. at 37° C. After pre-incubation blood samples were stimulated by the addition of 25 microL lipopolysaccharide (LPS) (Sigma, Aldrich) per sample resulting in a final concentration of 1 microg/mL LPS and a final volume of 250 microL. Cells were incubated for 4 hours at 37° C. TNFalpha levels were determined from plasma that was obtained by a centrifugation step and transferring the supernatant to a new 96-well plate which was again centrifuged and clear plasma supernatant was used for the measurement of TNFalpha via alphaLISA Technology according to manufacture protocol (Perkin Elmer).
(§1) Whole blood samples that were not stimulated with LPS were used as control and set for 100% inhibition. Whole blood samples that were stimulated with LPS and solvent instead of test compound were set as 0% inhibition. Percent inhibition was calculated based on these controls for each sample and since most compounds achieved saturating maximal inhibition of 60% a pIC30 value was calculated with GraphPad Prism Software.
For the following compounds the inhibitory values of TNFalpha release [determined as −log IC30=pIC30] in the human whole blood assay between 4.5 and 4.9, between 5.0 and 5.9 and between 6.0 and 6.9 have been determined. The numbers of the compounds correspond to the examples numbers.
Inhibition of LPS Induced TNFalpha Release Assay in Human Whole Blood: pIC30

[2] = target: T1, human prostanoid receptor EP2 (Homo sapiens, UniProt P43116); test: EP2 cAMP release assay in CHOp6CreLuc-huEP2 cells (CRE-luciferase readout); type: cell-based; settings: CHOp6CreLuc-huEP2 cells, 4 hours at 37° C.; reported as range bins; read-out: EP2 cAMP release assay pEC50 (-log EC50) (converted)
T1 construct: expressed in transfected cells; host or cells: CHO-K1 (CHOp6CreLuc-huEP2)
T1 sequence (P43116 whole entry): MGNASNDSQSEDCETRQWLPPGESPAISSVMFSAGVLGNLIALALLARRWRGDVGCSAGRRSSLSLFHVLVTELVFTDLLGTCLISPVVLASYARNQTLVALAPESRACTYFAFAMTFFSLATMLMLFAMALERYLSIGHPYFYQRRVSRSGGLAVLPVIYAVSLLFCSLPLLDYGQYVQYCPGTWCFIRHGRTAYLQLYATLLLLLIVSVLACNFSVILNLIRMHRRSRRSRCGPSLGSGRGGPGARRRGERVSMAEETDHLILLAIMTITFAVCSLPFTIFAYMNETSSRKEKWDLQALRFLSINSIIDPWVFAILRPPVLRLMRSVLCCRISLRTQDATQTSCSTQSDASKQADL
Method: Method for Measuring cAMP Release in Human EP2 Stably Transfectant Cells:
The potency and efficacy of EP2 agonists have been determined via measuring cAMP release in stably transfectant CHO-K1 cell expressing the human prostanoid receptor EP2 and luciferase enzyme regulated via a 6 times CRE (cAMP response element) containing transcriptional promoter. CHOp6CreLuc-huEP2 cells were seeded into 384-well plate (1000 cells per well) in DMEM/F12 (Dulbecco's Modified Eagle Medium/Nutrient Mixture F12) cell culture medium containing 2% FCS (Fetal Calf Serum) and 500 μg/ml G418 24 hours prior to the experiment. Test compound was added as serial dilutions while keeping the final DMSO concentration constant in each well. […] Cells were incubated together with test compound or butaprost for 4 hours at 37° C. The cAMP release was determined indirectly via luciferase activity that directly correlated to the amount of luciferase enzyme expressed in response to cAMP regulated promoter activity. The luciferase activity was determined by addition of luciferin containing buffer and subsequent quantification of resulting luminescence. Each sample was measured in quadruplicates per experiment and half-maximal effective concentration (EC50) and relative maximal effect compared to butaprost was determined from 3 independent experiments with GraphPad Prism Software. A compound that achieved over 80% of the maximal effect of butaprost was considered as full agonist.
For the following compounds the potency was determined in the cAMP release assay applying human EP2 transfectant CHOp6CreLuc-huEP2 cells. […] The numbers of the compounds correspond to the examples numbers.
EP2 cAMP Release Assay: pEC50

[3] = system: TNFalpha release in human peripheral blood mononuclear cells (PBMC) stimulated with LPS; test: Inhibition of LPS induced TNFalpha release in human PBMCs; type: cell-based; settings: 1 ng/mL LPS, 24 hours, reported as range bins, read-out: Inhibition of LPS induced TNFalpha release in human PBMCs pIC30 (-log IC30)
Method: Method for Measuring the Inhibition of TNFalpha Release in Human Peripheral Blood MononuClear Cells (PBMC) Stimulated with LPS:
Assay was performed with some modifications of the method described by Hatzelmann and Schudt (Hatzelmann and Schudt 2001, J. Pharmacol. Exp. Therapeutics 297: 267-279) and the protocol “drawing of venous blood from healthy volunteers for in vitro studies” was approved by the ethics committee of the Landesärztekammer Baden Württemberg in Stuttgart. Peripheral blood mononuclear cells (PBMCs) were isolated from venous blood with the anticoagulant citrate from healthy donors according to standard protocols using Ficoll. The cell layer of PBMCs were washed twice with phosphate buffer solution and equilibrated at room temperature for 60 minutes. 500,000 PBMCs in 180 microL RPMI1640 cell medium supplemented with 10% FCS, NEAA (Non-essential-amino-acids), L-Glutamine and Sodium Pyruvate per sample were pre-incubated with 10 microL of a serial dilution of test compound or piclamilast as positive control for 60 min. at 37° C. After pre-incubation blood samples were stimulated by the addition of 10 microL LPS (Sigma, Aldrich) per sample resulting in a final concentration of 1 ng/mL LPS and a final volume of 200 microL. Cells were incubated for 24 hours at 37° C. TNFalpha levels were determined from cell supernatant that was obtained by a centrifugation step and transferring the supernatant to a new 96-well plate. Content of TNFalpha was determined via alphaLISA Technology according to manufacture protocol (Perkin Elmer).
as §1, with “PBMC” for “Whole blood”
For the following compounds the inhibitory values of TNFalpha release [determined as −log IC30=pIC30] in human PBMCs between 5.0 and 5.9, between 6.0 and 6.9, between 7.0 and 7.9 and between 8.0 and 9.0 have been determined. The numbers of the compounds correspond to the examples numbers.
Inhibition of LPS Induced TNFalpha Release Assay in Human PBMCs: pIC30

[4] = target: T2, human EP2 receptor (Homo sapiens, UniProt P43116); test: EP2 binding assay (PGE2 displacement); settings: recombinant human EP2 membranes, 1 nanoM [3H]-PGE2; reported as range bins; read-out: EP2 binding (PGE2 displacement) pIC50 (-log IC50) (converted)
T2 construct: purchased Millipore
T2 sequence (P43116 whole entry): as above
Method: Method for Measuring Inhibition of PGE2 Binding to the Human Prostanoid Receptor EP2:
Human EP2 receptor equilibrium competition binding assays were performed according to Abramovitz et al. (M. Abramovitz et al. 2000, Biochimica et Biophysica Acta 1483: 285-293) in a final incubation volume of 100 microL in 50 milliM Bis-Tris, pH6.0 in 96-well plates. Radiolabelled Prostaglandin E2 (PGE2) (1 nanoM [^3H]-PGE2 purchased from Perkin Elmer) was added to the assay as competitive ligand. Test compounds stored as Dimethylsulfoxide (DMSO) stock solutions were added to the assay in serial dilutions in assay buffer while keeping the final DMSO concentration equal in each sample. The reaction was initiated by addition of membrane proteins harbouring human EP2 receptor (ChemiSCREEN™ membrane preparation recombinant human EP2 prostanoid receptor that was purchased by Millipore). Total binding was determined in the absence of test compound or PGE2 and non-specific binding was determined in the presence of 1 microM PGE2. Incubations were conducted for 60 minutes at room temperature until equilibrium was reached and terminated by filtration through GF/B filter (Perkin Elmer) prewetted with 0.3% PEI solution. Unbound radiolabelled PGE2 was removed by 8 wash cycles with the same buffer under ice-cold conditions and the filters containing the residual radioactivity were dried for 60 minutes at 60° C. In order to measure the filter bound radioactivity, 40 microL microscint (scintillation liquid) was added to each filter and the chemiluminescence was determined by TopCount-NTX™. The specific binding was calculated by subtracting non-specific binding from each sample. Percent inhibition by test compounds was calculated based on specific binding without test compound. Each sample was measured in triplicates per experiment and for the calculation of the pIC50 at least 2 independent experiments were performed. Determination of half maximal inhibiting concentration (IC50) was performed with GraphPad Prism Software.
The numbers of the compounds correspond to the examples numbers.
EP2 Binding Assay (PGE2 Displacement): pIC50 Values

Compound	IC30 [1] [nM]	EC50 [2] [nM]	IC30 [3] [nM]	IC50 [4] [nM]
O=C(O)/C=C/c1cccc(NC(=O)c2cc(-c3cccc(O)c3)cc3ccccc23)c1 [Example 19, (2E)-3-[3-({[3-(3-hydroxyphenyl)naphthalen-1-yl]carbonyl}amino)phenyl]prop-2-enoic acid]	126 to 1000	0.00631 to 0.1	12.6 to 100	1.26 to 10
O=C(O)/C=C/c1ccc(F)c(NC(=O)c2cc(N3CCCCC3)cc3ccccc23)c1 [Example 22, (2E)-3-[4-fluoro-3-({[3-(piperidin-1-yl)naphthalen-1-yl]carbonyl}amino)phenyl]prop-2-enoic acid]	1260 to 10000	0.126 to 1	12.6 to 100	12.6 to 100
